In ChEMBL document CHEMBL1126481, “Low molecular weight neurokinin NK2 antagonists” (Bioorg Med Chem Lett, 1993):
Peptide text beside a SMILES is read from it.

Legend:
[1] = target: T1, Substance-K receptor (Rattus norvegicus) (UniProt P16610); test: In vitro for antagonism against neurokinin NK2 receptor in rat colon muscularis mucosae; assay type: functional, tissue-based; settings: Muscularis mucosa
T1 sequence (whole entry): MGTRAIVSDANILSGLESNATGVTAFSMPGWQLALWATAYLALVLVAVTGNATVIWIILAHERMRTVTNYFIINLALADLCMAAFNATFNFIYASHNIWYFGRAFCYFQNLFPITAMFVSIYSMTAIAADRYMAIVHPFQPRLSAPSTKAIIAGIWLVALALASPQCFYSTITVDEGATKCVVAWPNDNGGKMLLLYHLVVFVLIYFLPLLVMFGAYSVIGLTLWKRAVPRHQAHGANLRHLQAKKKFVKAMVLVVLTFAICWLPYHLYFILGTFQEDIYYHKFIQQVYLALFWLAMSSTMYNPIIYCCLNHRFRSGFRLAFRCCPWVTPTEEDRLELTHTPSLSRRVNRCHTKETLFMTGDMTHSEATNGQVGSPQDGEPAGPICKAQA

[2] = species: Oryctolagus cuniculus; test: Tested for antagonistic activity of compound in endothelium-deprived rabbit pulmonary artery; assay type: functional; settings: read-out: pA2 (converted)
[3] = target: T2, Substance-K receptor (Cavia porcellus) (UniProt Q64077); test: The compound was tested in vitro for antagonism against Tachykinin receptor 2 in isolated guinea pig trachea; assay type: functional, tissue-based
T2 sequence (whole entry): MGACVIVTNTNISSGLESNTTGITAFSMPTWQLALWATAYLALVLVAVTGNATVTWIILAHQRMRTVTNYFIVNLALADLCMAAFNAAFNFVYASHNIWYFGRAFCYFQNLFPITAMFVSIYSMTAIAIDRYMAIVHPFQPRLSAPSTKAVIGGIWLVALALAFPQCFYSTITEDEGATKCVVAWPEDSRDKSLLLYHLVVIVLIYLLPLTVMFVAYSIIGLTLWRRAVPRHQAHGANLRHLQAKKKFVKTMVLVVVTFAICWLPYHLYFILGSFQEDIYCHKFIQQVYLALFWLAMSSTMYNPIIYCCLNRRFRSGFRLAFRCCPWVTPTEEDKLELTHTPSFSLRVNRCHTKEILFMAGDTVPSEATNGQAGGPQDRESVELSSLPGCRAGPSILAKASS

[4] = target: T1, Substance-K receptor (Rattus norvegicus); test: The compound was tested in vitro for antagonism against Tachykinin receptor 2 in rat colon muscularis mucosae.; assay type: functional, tissue-based; settings: Muscularis mucosa
[5] = target: T2, Substance-K receptor (Cavia porcellus); test: The compound was tested […] for antagonism against neurokinin NK2 receptor in isolated guinea pig trachea.; assay type: functional
[6] = Biological half life when administered at 5 umol/kg intravenously to guinea pig in GR-64349 antagonism; assay type: ADME, organism-based, Cavia porcellus; settings: in vivo, iv
[7] = target: Substance-P receptor (Cavia porcellus) (UniProt P30547); test: The compound was tested […] for antagonism against neurokinin NK1 receptor in isolated guinea pig trachea.; assay type: functional
[8] = Biological half life when administered at 0.1 umol/kg intravenously to guinea pig in GR-64349 antagonism; assay type: ADME, organism-based, Cavia porcellus; settings: in vivo, iv

Substance-P receptor (Cavia porcellus), sequence (P30547 whole entry): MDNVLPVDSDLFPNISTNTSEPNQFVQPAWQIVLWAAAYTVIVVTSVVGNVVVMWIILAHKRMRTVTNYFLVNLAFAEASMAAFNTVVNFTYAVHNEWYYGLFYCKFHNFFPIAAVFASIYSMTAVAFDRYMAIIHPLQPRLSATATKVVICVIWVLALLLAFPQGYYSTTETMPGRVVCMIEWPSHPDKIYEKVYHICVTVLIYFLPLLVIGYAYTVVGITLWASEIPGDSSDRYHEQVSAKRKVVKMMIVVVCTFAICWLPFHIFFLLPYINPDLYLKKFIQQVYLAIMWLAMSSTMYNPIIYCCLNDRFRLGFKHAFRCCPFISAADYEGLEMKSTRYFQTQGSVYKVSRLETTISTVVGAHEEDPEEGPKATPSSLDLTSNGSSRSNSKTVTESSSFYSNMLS

Compound: C[C@H](NC(=O)c1ccccc1)C(=O)N[C@@H](C)C(=O)N[C@H](Cc1c[nH]c2ccccc12)C(=O)N(C)CCc1ccccc1
- pKB [1]: 7.4

Compound: C[C@H](NC(=O)c1ccccc1)C(=O)N[C@@H](C)C(=O)N[C@H](Cc1c[nH]c2ccccc12)C(=O)N(C)C
- pKB [1]: 6.45

Compound: CC(=O)NC1(c2ccccc2)CCN(CC[C@H](CN(C)C(=O)c2ccccc2)c2ccc(Cl)c(Cl)c2)CC1 [SAREDUTANT]
- Kb [2]: 0.0501 nM

Compound: CC(Cc1c[nH]c2ccccc12)NC(=O)[C@H](C)NC(=O)[C@H](C)NC(=O)c1ccccc1 (some centres not stated)
- pKB [3]: 7.4
- pKB [1]: < 5
- pKB [4]: 6.66

Compound: C[C@H](NC(=O)c1ccccc1)C(=O)N[C@@H](C)C(=O)NCCc1c[nH]c2ccccc12
- pKB [1]: 6.02

Compound: CC(C)CCN(C)C(=O)[C@@H](Cc1c[nH]c2ccccc12)NC(=O)[C@H](C)NC(=O)[C@H](C)NC(=O)c1ccccc1
- pKB [1]: 8

Compound: C[C@H](NC(=O)c1ccccc1)C(=O)N[C@@H](C)C(=O)N[C@H](Cc1c[nH]c2ccccc12)C(=O)N[C@@H](Cc1ccccc1)C(=O)N(C)C
- pKB [1]: 8.56

Compound: C[C@H](NC(=O)CNC(=O)c1ccccc1)C(=O)N[C@H](Cc1c[nH]c2ccccc12)C(=O)N[C@@H](Cc1ccccc1)C(=O)N(C)C
- pKB [1]: 8.87

Compound: C[C@H](NC(=O)c1ccccc1)C(=O)N[C@@H](C)C(=O)N[C@H](C#N)Cc1c[nH]c2ccccc12
- pKB [1]: 6.8
- pKB [5]: 7.4
- half-life [6]: 20 min

Compound: CC(C)CCN(C)C(=O)[C@@H](Cc1c[nH]c2ccccc12)NC(=O)[C@H](C)NC(=O)c1c[nH]c(-c2ccccc2)n1
- pKB [7]: 4.9
- pKB [1]: 7.64
- pKB [5]: 7.9
- half-life [6]: 140 min

Compound: C[C@H](NC(=O)CNC(=O)C1CCCCC1)C(=O)N[C@H](Cc1c[nH]c2ccccc12)C(=O)N[C@@H](Cc1ccccc1)C(=O)N(C)C (HELM PEPTIDE1{[O=C(C1CCCCC1)[*:2]].G.A.[dW].F.[CN(C)[*:1]]}$$$$V2.0)
- pKB [7]: 5.1
- pKB [1]: 9.05
- half-life [8]: 26 min
- pKB [5]: 9.3

Compound: C[C@H](NC(=O)c1ccccc1)C(=O)N[C@@H](C)C(=O)N[C@H](Cc1c[nH]c2ccccc12)C(=O)N[C@@H](Cc1ccccc1)C(=O)O
- pKB [1]: 6.6
